Measured values taken from US20160340656A1, “PEPTIDES DERIVED FROM GSE 24.2 FOR TREATING DISEASES CAUSED BY OXIDATIVE STRESS AND DAMAGE TO DNA” (CONSEJO SUPERIOR DE INVESTIGACIONES CIENTÍFICAS (CSIC), priority 2013, published 2016).

Tests used:
[1] = tested on: AT2078 cells of patients with ataxia telangiectasia; experiment: Damage to DNA in AT2078 cells: histone H2AX Ser139 foci after expression of GSE4 or SGSE4; assay type: cell-based, human; settings: 200 cells
Method: FIG. 14. Determination of damage to DNA in AT cells after transfecting peptides GSE4 and SGSE4: AT2078 AT cells were infected with a lentiviral vector expressing GSE4, SGSE4 or a GFP empty vector and 24 hours later were fixed for processing and hybridised with an antibody against phosphorylated histone H2AX (Ser139). Control C-1787 cells were used as the negative control. Next they were hybridised with a fluorescein-labelled antibody and were stained with DAPI to locate the nuclei.
As the peptide denominated GSE4 was the smallest sized of the peptides with ability to inhibit damage to DNA, we studied if another peptide with a similar sequence localised in the sequence of peptide GSE24.2 had the same activity or if that activity was specific to GSE4. Peptide SGSE4 (SEQ ID No. 15) is similar to GSE4 in sequence (amino acids LDPK/LDKP that constitute consensus sequences for pseudouridine synthases) and size and is found in the TRUBII domain of dyskerin. Cell lines AT2078 of patients with ataxia telangiectasia were used for this test. Cell line C-1787 was used as the control cell line. The cells were infected with the bicistronic lentiviral vector pCMV-GFP-GSE4, SGSE4 or GFP. After 48 hours of infection the cells were fixed with formaldehyde and then permeabilized by treating them with Triton X-100. The damage to DNA was estimated by studying the signal after hybridisation of the cells with an antibody against histone H2AX Ser139 and subsequent hybridisation with an antibody bound to fluorescein. The number of foci with stain for histone H2AX per nucleus was determined by confocal microscopy in a total of 200 cells and the data represented as a percentage of cells with a specific number of foci.

[2] = tested on: promoter of c-myc in 293T cells; experiment: c-myc promoter luciferase reporter activity; assay type: cell-based; settings: 24 hours, relative to GSE24.2
Method: FIG. 20. Activity of constructions GSE24.2NLS1-3 and GSE24.2NLS2-3 on the c-myc promoter. The expression vectors for the constructions GSE24.2, GSE24.2N LS1-3 and GSE24.2NLS2-3 were transfected (using lipofectamine) into 293T cells together with the reporter gene of the promoter of c-myc, pXP1, and 24 hours later the luciferase activity was measured using a commercial kit. The values are expressed as relative activity, considering 1 as the value of luciferase with the empty expression vector pCDNA3myc.
With the aim of evaluating biological activity of the constructions containing the signals NLS1-3 and N LS2-3, they were transfected into 293T cells together with the reporter gene of the promoter of c-myc and the luciferase activity activated by both constructions GSE24.2NLS1-3 and GSE24.2NLS2-3 was evaluated in relation to GSE24.2.

HeLa cells = experiment: Internalisation of fluorescein-labelled peptides, confocal fluorescence microscopy; assay type: cell-based
Method: (§1) FIG. 21. Transfection of peptides GSE4 and GSE4NLS1 in HeLa cells. Peptides GSE4 and GSE4NLS1 (SEQ ID No. 7) labelled with fluorescein and obtained by chemical synthesis were transfected into HeLa cells using the Proteojuice reagent and viewed in a confocal fluorescence microscope at 9, 24 and 48 hours after transfection.
as §1, with “22. Internalisation” for “21. Transfection”, “added to the culture medium of” for “transfected into”, “cells” for “cells using the Proteojuice reagent”
Given the ability of sequence NLS1 to contribute to the activity of GSE24.2, a synthetic peptide into which this sequence was placed in the 3′ region of peptide GSE4 was constructed as this was the peptide for which the greatest telomerase activation was obtained. The peptides obtained by chemical synthesis were labelled with fluorescein to facilitate their visualisation in a fluorescence microscope. Two experiments were performed in parallel, in one the peptides were transfected using Proteojuice reagent and in the other they were added directly to the culture medium. […] An important difference observed was that when the peptides were added directly to the culture medium, the peptide entered into a higher number of cells than when Proteojuice was used. The reagent provided greater effectiveness for internalisation but into a small number of cells.

HSGTLDPKVTG (listed as Homo sapiens) [SGSE4, reference compound]
AT cells in which overall damage to DNA is corrected [1]: not able to correct the damage to DNA

GFINLDKPSNPSSHEVVAWIRRILRVEKTGHSGTLDPKVTGCLIVCIERATRLVKKRKR (GSE24.2NLS1-3; listed as Homo sapiens) [GSE24.2 with NLS1 in the 3′ position]
activation of expression of the promoter of c-myc (luciferase) [2]: more effectively than GSE24.2

GFINLDKPSNPKRKR (GSE4NLS1-3; listed as Homo sapiens)
entry into cells (HeLa cells; peptide simply added to the culture medium): entered the cells | entry into cells (HeLa cells; transfected using Proteojuice reagent): entered the cells

B1: GFINLDKPSNPSSHEVVAWIRRILRVEKTGHSGTLDPKVTGCLIVCIERATRLVKKKEKKKSK (peptide, listed as Homo sapiens)
chain: GFINLDKPSNPSSHEVVAWIRRILRVEKTGHSGTLDPKVTGCLIVCIERATRLVKKKEKKKSK
modifications: GSE24.2NLS2-3
notes: GSE24.2 with NLS2 in the 3′ position
activation of expression of the promoter of c-myc (luciferase) [2]: more effectively than GSE24.2
